Test results taken from patent US20240181091A1, “ORAL DELIVERY OF SILICA/ALUMINOSILICATE NANOPARTICLES” (Cornell University, priority 2021, published 2024).

Tested on: Caco-2 monolayer
Type: in vitro ADME, human
Description: To test that the monolayer well resembled the epithelial lining of the GI tract and formed tight junctions, Lucifer Yellow (LY) was used as a standard. It has been reported that the integrity of a Caco-2 monolayer is good once the Papp of LY across the monolayer is <5×10^−7 cm/s. The measured Papp of LY across all Caco-2 monolayers (see Methods for more details) used in this study is depicted in FIG. 8B, with all values of Papp<3×10^−7 cm/s.
Caco-2 Cell Culture: Caco-2 cells (ATCC) were cultured in RPMI 1640 supplemented with 20% fetal bovine serum and 10k/10k penicillin/streptomycin (Lonza). 75 μL of Caco-2 cells were plated on the apical side of a 96-well Transwell dish at a seeding density of 2×10^5 cells/mL. 75 μL of media was used on the apical side and 235 μL on the basolateral side. The media was changed every other day for a week, followed by changes every day until the Papp of a Lucifer Yellow assay was <5×10^−7 cm/s. Cells were incubated at 37° C. with 5% CO2 and 90% humidity.
Lucifer Yellow Monolayer Integrity Assay: Lucifer Yellow (LY) was dissolved at a concentration of 0.1 mg/mL in Hank's balanced salt solution (HBSS). 75 μL of LY solution was added to the apical side and 235 μL HBSS was added to the basolateral side. […] The concentration of LY on the basolateral side was determined using fluorescence 488/520 ex/em with a Spectramax M2. […]

## Lucifer Yellow [LY]
  Papp of Lucifer Yellow across Caco-2 monolayers: < 0.3 ×10⁻⁶ cm/s
